According to patent US10259807B2, “1-(piperazin-1-yl)-2-([1,2,4]triazol-1-yl)-ethanone derivatives” (Idorsia Pharmaceuticals Ltd., priority 2013, dated 2019):

How the values were obtained:
[1] = molecular target: T1, human CXCR3A (Homo sapiens, UniProt P49682); assay: FLIPR assay (CXCL10-induced calcium signal in CHO-K1 cells); format: cell-based; details: CHO-K1 cells expressing human CXCR3A coupled to Galpha(16); CXCL10 agonist 20 nM; mean values
T1 construct: expressed in transfected cells; host or cells: CHO-K1
T1 sequence (P49682 1-368): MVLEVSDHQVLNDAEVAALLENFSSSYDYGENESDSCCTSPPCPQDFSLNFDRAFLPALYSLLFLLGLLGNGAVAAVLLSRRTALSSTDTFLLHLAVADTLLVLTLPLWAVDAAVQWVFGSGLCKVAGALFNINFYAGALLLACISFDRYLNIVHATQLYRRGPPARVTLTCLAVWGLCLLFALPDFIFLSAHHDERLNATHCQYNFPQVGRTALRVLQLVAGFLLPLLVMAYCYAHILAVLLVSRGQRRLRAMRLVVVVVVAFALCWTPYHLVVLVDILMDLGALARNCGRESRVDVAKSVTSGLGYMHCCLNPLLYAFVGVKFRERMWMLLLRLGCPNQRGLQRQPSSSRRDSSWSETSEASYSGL
Method: A) FLIPR assay: The bioactivity of compounds is tested in a fluorometric imaging plate reader (FLIPR: Molecular Devices) using engineered CHO-K1 cells expressing the human CXCR3A (GenBank: AY242128) coupled to a G protein (Galpha(16)). Cells are plated the day prior to bioassay in F12 medium supplemented with 10% FBS and G418 and hygromycin antibiotics to maintain recombinant selection. […] Cells are washed free of excess dye and 60 microliter of wash buffer is added. Stock solutions of test compounds are made up at a concentration of 10 mM in DMSO, and serially diluted in dilution buffer to concentrations required for inhibition dose response curves. After a 10 minute incubation period at 37° C., 10 microliters of each compound dilution are transferred from a compound plate to the plate containing the recombinant cells in the FLIPR instrument according to the manufacturer's instructions. Following basal readings, 10 microliter CXCL10 agonist at a concentration of 20 nM (from Peprotech) is added, again using the FLIPR instrument. Changes in fluorescence are monitored before and after addition of the test compounds. Emission peak values above base level after CXCL10 addition are exported after base line subtraction. The program XLfit is used to fit the data to a single site dose response curve and to calculate IC50 values. The calculated IC50 values may fluctuate depending on the daily assay performance. Fluctuations of this kind are known to those skilled in the art.

[2] = molecular target: T2, hERG K channel (Homo sapiens, UniProt Q12809); assay: hERG Q-Patch assay; format: cell-based; details: CHO cells expressing hERG, K+ tail current 3 min after application, mean of two or three experiments
T2 construct: host or cells: CHO
T2 sequence (Q12809 whole entry): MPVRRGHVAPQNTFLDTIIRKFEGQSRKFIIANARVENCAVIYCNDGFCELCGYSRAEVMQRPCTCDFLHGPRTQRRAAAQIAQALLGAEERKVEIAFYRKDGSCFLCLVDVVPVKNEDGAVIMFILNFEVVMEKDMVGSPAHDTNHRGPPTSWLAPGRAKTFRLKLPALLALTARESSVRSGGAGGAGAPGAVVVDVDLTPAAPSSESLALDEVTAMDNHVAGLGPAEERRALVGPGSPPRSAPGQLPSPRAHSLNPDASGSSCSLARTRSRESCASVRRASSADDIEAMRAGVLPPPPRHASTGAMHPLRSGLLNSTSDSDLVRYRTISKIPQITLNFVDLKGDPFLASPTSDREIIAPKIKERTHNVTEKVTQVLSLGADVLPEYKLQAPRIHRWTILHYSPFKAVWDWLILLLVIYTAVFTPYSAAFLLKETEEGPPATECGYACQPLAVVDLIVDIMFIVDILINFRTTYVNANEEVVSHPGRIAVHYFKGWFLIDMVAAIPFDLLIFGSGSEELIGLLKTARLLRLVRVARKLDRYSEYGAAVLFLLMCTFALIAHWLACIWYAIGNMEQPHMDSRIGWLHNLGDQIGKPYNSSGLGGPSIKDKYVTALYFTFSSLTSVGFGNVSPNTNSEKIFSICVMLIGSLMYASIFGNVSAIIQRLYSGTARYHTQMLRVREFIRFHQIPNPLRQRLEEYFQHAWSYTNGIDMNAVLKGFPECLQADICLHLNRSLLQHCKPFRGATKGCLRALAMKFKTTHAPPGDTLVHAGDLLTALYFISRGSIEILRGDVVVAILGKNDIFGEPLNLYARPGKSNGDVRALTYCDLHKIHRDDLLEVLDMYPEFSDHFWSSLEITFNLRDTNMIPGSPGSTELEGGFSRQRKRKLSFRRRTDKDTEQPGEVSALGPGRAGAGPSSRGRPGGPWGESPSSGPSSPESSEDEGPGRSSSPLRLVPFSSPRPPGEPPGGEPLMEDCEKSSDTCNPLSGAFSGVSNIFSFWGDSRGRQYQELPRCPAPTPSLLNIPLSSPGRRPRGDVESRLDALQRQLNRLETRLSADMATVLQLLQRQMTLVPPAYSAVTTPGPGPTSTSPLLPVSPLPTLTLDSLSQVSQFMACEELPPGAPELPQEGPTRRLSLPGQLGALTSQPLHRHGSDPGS
Method: B) hERG Q-Patch assay: Compounds are evaluated for block of the hERG K channel using CHO cells stably expressing the hERG gene (accession number U04270, bSys, Witterswil. Switzerland) and the Patch robotic platform (Sophion, Ballerup, Denmark) in single-cell mode at room temperature. […] When the cells are ˜80% confluent (every 2-3 days), they are either split for further culture or used for electrophysiology. […] Cells are kept in suspension medium at 32-35° C. in the QPatch robot until use, at which time aliquots are transferred to the extracellular solution (in mM: NaCl 150; KCl 4; CaCl2 1.2; MgCl2 1; HEPES 10; pH 7.4 with NaOH) containing 0.3% v/v DMSO and applied to the test plates. K^+ currents are measured with the patch-voltage-clamp technique in the whole-cell configuration with the internal solution (in […]: KCl, 140; NaCl, 10; MgCl2, 1; HEPES, 10; EGTA, 5; pH=7.2 with KOH). […] K^+tail currents are produced from a holding voltage of −80 mV by a 500-ms depolarization to +20 mV followed by a 500-ms repolarization to −40 mV; tail current amplitudes are measured at the end of the repolarization to −40 mV. The pulse pattern is repeated every 10 sec during the experiment, baseline K^+ current is measured after 3 min in extracellular solution, test-solution containing compound is then applied, and K^+ current in presence of compound is measured 3 minutes after application to the cells.

With `Cc1nc(C)n(CC(=O)N2CCN(c3sc(C(F)(F)F)nc3-c3cnc(CCN(C)C)nc3)C[C@H]2C)n1` [Example 42, 1-((R)-4-{4-[2-(2-Dimethylamino-ethyl)-pyrimidin-5-yl]-2-trifluoromethyl-thiazol-5-yl}-2-methyl-piperazin-1-yl)-2-(3,5-dimethyl-[1,2,4]triazol-1-yl)-ethanone] the IC50 [1] was 0.091 µM, the “% block” value ([2]; concentration 300 nM) was −3% and the “% block” value ([2]; concentration 3000 nM) was 0%.
With `CCc1ccc(-c2nc(C(F)(F)F)sc2N2CCN(C(=O)Cn3nc(C)nc3C)[C@H](C)C2)cc1` [Example 9, 2-(3,5-Dimethyl-[1,2,4]triazol-1-yl)-1-{(R)-4-[4-(4-ethyl-phenyl)-2-trifluoromethyl-thiazol-5-yl]-2-methyl-piperazin-1-yl}-ethanone] the IC50 [1] was 0.036 µM, the “% block” value ([2]; concentration 300 nM) was 12% and the “% block” value ([2]; concentration 3000 nM) was 44%.
`COc1ccc(-c2nc(C(F)(F)F)sc2N2CCN(C(=O)Cn3nc(C)nc3C)[C@H](C)C2)cc1C` [Example 12, 2-(3,5-Dimethyl-[1,2,4]triazol-1-yl)-1-{(R)-4-[4-(4-methoxy-3-methyl-phenyl)-2-trifluoromethyl-thiazol-5-yl]-2-methyl-piperazin-1-yl}-ethanone] was tested, and the IC50 [1] was 0.025 µM, the “% block” value ([2]; concentration 300 nM) was 6% and the “% block” value ([2]; concentration 3000 nM) was 27%.
`Cc1nc(C)n(CC(=O)N2CCN(c3sc(C(F)(F)F)nc3-c3cnc(OC4COC4)nc3)C[C@H]2C)n1` [Example 30, 2-(3,5-Dimethyl-[1,2,4]triazol-1-yl)-1-((R)-2-methyl-4-{4-[2-(oxetan-3-yloxy)-pyrimidin-5-yl]-2-trifluoromethyl-thiazol-5-yl}-piperazin-1-yl)-ethanone] was tested, and the IC50 [1] was 0.022 µM, the “% block” value ([2]; concentration 300 nM) was 1% and the “% block” value ([2]; concentration 3000 nM) was 6%.
With `CCOc1ncc(-c2nc(C(F)(F)F)sc2N2CCN(C(=O)Cn3nc(C)nc3CC)[C@H](C)C2)cn1` (single isomer, unassigned) [Example 19] the IC50 [1] was 0.0085 µM, the “% block” value ([2]; concentration 300 nM) was 4% and the “% block” value ([2]; concentration 3000 nM) was 12%.
For `Cc1nc(C)n(CC(=O)N2CCN(c3sc(C(F)(F)F)nc3-c3ccc(OC(F)(F)F)cc3)C[C@H]2C)n1` [Example 3, 2-(3,5-Dimethyl-[1,2,4]triazol-1-yl)-1-{(R)-2-methyl-4-[4-(4-trifluoromethoxy-phenyl)-2-trifluoromethyl-thiazol-5-yl]-piperazin-1-yl}-ethanone], the IC50 [1] was 0.0098 µM, the “% block” value ([2]; concentration 300 nM) was 19% and the “% block” value ([2]; concentration 3000 nM) was 60%.
In the case of `COc1ccc(-c2nc(C(F)(F)F)sc2N2CCN(C(=O)Cn3nc(C)nc3C)[C@H](C)C2)cc1F` [Example 10, 2-(3,5-Dimethyl-[1,2,4]triazol-1-yl)-1-{(R)-4-[4-(3-fluoro-4-methoxy-phenyl)-2-trifluoromethyl-thiazol-5-yl]-2-methyl-piperazin-1-yl}-ethanone], the IC50 [1] is reported as 0.02 µM, the “% block” value ([2]; concentration 300 nM) is reported as 7% and the “% block” value ([2]; concentration 3000 nM) is reported as 20%.
In the case of `Cc1nc(C)n(CC(=O)N2CCN(c3sc(C(F)(F)F)nc3-c3ccc4c(c3)CCO4)C[C@H]2C)n1` [Example 40, 1-{(R)-4-[4-(2,3-Dihydro-benzofuran-5-yl)-2-trifluoromethyl-thiazol-5-yl]-2-methyl-piperazin-1-yl}-2-(3,5-dimethyl-[1,2,4]triazol-1-yl)-ethanone], the IC50 [1] is reported as 0.022 µM, the “% block” value ([2]; concentration 300 nM) is reported as 1% and the “% block” value ([2]; concentration 3000 nM) is reported as 25%.
`CCc1nc(C)n(CC(=O)N2CCN(c3sc(C(F)(F)F)nc3-c3cnc(C(F)(F)F)nc3)C[C@H]2C)n1` (single isomer, unassigned) [Example 46] was tested, and the IC50 [1] was 0.0016 µM, the “% block” value ([2]; concentration 300 nM) was 13% and the “% block” value ([2]; concentration 3000 nM) was 29%.
`Cc1nc(C)n(CC(=O)N2CCN(c3sc(C(F)(F)F)nc3-c3ccc4c(c3)OCO4)C[C@H]2C)n1` [Example 13, 1-[(R)-4-(4-Benzo[1,3]dioxol-5-yl-2-trifluoromethyl-thiazol-5-yl)-2-methyl-piperazin-1-yl]-2-(3,5-dimethyl-[1,2,4]triazol-1-yl)-ethanone] was tested, and the IC50 [1] was 0.076 µM, the “% block” value ([2]; concentration 300 nM) was 9% and the “% block” value ([2]; concentration 3000 nM) was 39%.
`CCOc1ncc(-c2nc(C(F)(F)F)sc2N2CCN(C(=O)Cn3nc(C)nc3C)[C@@H](C)C2)cn1` [Example 34, 2-(3,5-Dimethyl-[1,2,4]triazol-1-yl)-1-{(S)-4-[4-(2-ethoxy-pyrimidin-5-yl)-2-trifluoromethyl-thiazol-5-yl]-2-methyl-piperazin-1-yl}-ethanone] was tested, and the IC50 [1] was 0.0057 µM, the “% block” value ([2]; concentration 300 nM) was 3% and the “% block” value ([2]; concentration 3000 nM) was 4%.
For `Cc1nc(C(C)(C)O)nn1CC(=O)N1CCN(c2sc(C(F)(F)F)nc2-c2cnc(C(F)(F)F)nc2)C[C@H]1C` [Example 48, 2-[3-(1-Hydroxy-1-methyl-ethyl)-5-methyl-[1,2,4]triazol-1-yl]-1-{(R)-2-methyl-4-[2-trifluoromethyl-4-(2-trifluoromethyl-pyrimidin-5-yl)-thiazol-5-yl]-piperazin-1-yl}-ethanone], the IC50 [1] was 0.0047 µM, the “% block” value ([2]; concentration 300 nM) was 1% and the “% block” value ([2]; concentration 3000 nM) was 2%.
In the case of `COc1ccc(-c2nc(C(F)(F)F)sc2N2CCN(C(=O)Cn3nc(C)nc3C)[C@H](C)C2)c(F)c1` [Example 11, 2-(3,5-Dimethyl-[1,2,4]triazol-1-yl)-1-{(R)-4-[4-(2-fluoro-4-methoxy-phenyl)-2-trifluoromethyl-thiazol-5-yl]-2-methyl-piperazin-1-yl}-ethanone], the IC50 [1] is reported as 0.045 µM, the “% block” value ([2]; concentration 300 nM) is reported as 10% and the “% block” value ([2]; concentration 3000 nM) is reported as 19%.
In the case of `Cc1nc(CO)nn1CC(=O)N1CCN(c2sc(C(F)(F)F)nc2-c2cnc(C(F)(F)F)nc2)C[C@H]1C` [Example 44, 2-(3-Hydroxymethyl-5-methyl-[1,2,4]triazol-1-yl)-1-{(R)-2-methyl-4-[2-trifluoromethyl-4-(2-trifluoromethyl-pyrimidin-5-yl)-thiazol-5-yl]-piperazin-1-yl}-ethanone], the IC50 [1] is reported as 0.0051 µM, the “% block” value ([2]; concentration 300 nM) is reported as −3% and the “% block” value ([2]; concentration 3000 nM) is reported as −6%.
In the case of `CCOc1ncc(-c2nc(C(F)(F)F)sc2N2CCN(C(=O)Cn3nc(C)nc3C)CC2)cn1` [Example 35, 2-(3,5-Dimethyl-[1,2,4]triazol-1-yl)-1-{4-[4-(2-ethoxy-pyrimidin-5-yl)-2-trifluoromethyl-thiazol-5-yl]-piperazin-1-yl}-ethanone], the IC50 [1] is reported as 0.0046 µM, the “% block” value ([2]; concentration 300 nM) is reported as 2% and the “% block” value ([2]; concentration 3000 nM) is reported as 4%.
For `Cc1nc(C)n(CC(=O)N2CCN(c3sc(C(F)(F)F)nc3-c3ccc(F)cc3)C[C@H]2C)n1` [Example 6, 2-(3,5-Dimethyl-[1,2,4]triazol-1-yl)-1-{(R)-4-[4-(4-fluoro-phenyl)-2-trifluoromethyl-thiazol-5-yl]-2-methyl-piperazin-1-yl}-ethanone], the IC50 [1] was 0.064 µM, the “% block” value ([2]; concentration 300 nM) was 11% and the “% block” value ([2]; concentration 3000 nM) was 51%.
With `CCOc1ncc(-c2nc(C(F)(F)F)sc2N2CCN(C(=O)Cn3nc(C)nc3C)[C@H](C)C2)c(OCC)n1` [Example 29, 1-{(R)-4-[4-(2,4-Diethoxy-pyrimidin-5-yl)-2-trifluoromethyl-thiazol-5-yl]-2-methyl-piperazin-1-yl}-2-(3,5-dimethyl-[1,2,4]triazol-1-yl)-ethanone] the IC50 [1] was 0.0045 µM, the “% block” value ([2]; concentration 300 nM) was −2% and the “% block” value ([2]; concentration 3000 nM) was 0%.
In the case of `Cc1nc(C)n(CC(=O)N2CCN(c3sc(C(F)(F)F)nc3-c3ccc(OC(C)C)cc3)C[C@H]2C)n1` [Example 2, 2-(3,5-Dimethyl-[1,2,4]triazol-1-yl)-1-{(R)-4-[4-(4-isopropoxy-phenyl)-2-trifluoromethyl-thiazol-5-yl]-2-methyl-piperazin-1-yl}-ethanone], the IC50 [1] is reported as 0.016 µM, the “% block” value ([2]; concentration 300 nM) is reported as 7% and the “% block” value ([2]; concentration 3000 nM) is reported as 38%.
